Assays:
[1] = Fluorimetric pH titration of the sensor molecules in aqueous buffers; format: physicochemical; conditions: for λem / λex / pK / pKa: aqueous buffers; for λem / λex / pK: around 10 μmol/L; for S = F/F0: fluorescent response to the pH changes; for pK: fluorimetric pH titration
Description: Example 201. Fluorimetric pH titration. The study of the fluorescent response of the sensor molecules to changes in pH was performed in solution in aqueous buffers (in concentrations around 10 μmol/L).
The resulting curve has a pronounced maximum at pH 7.2 (FIG. 2).

[2] = Fluorescence response of ratiometric dextran conjugates versus pH; format: physicochemical; conditions: 50 mM phosphate buffers
[3] = tested on: white blood cells (granualcytes); test: Assay of phagocytic activity in whole blood using bioparticles labeled with pH sensing dyes; format: cell-based
Description: Assay of phagocytic activity using bioparticles labeled with pH sensing dyes. A whole blood sample was collected in a sodium heparin tube. Aliquots of whole blood (100 uL) were combined with labeled E. coli (20 uL of 10 mg/mL) in 12×75 mm flow cytometry Falcon tube, and the samples were incubated in a 37° C. water bath for 15 minutes. A negative control was put on ice. After incubation, the tubes were placed in a rack and the red blood cells were lysed with 1 mL of an ammonium chloride lysis solution (0.187 M NH4Cl, 10 mM KHCO3, 0.095 mM EDTA) for 10 minutes at room temperature. The samples were centrifuged at 1200 rcf for 5 minutes, the supernatants were removed, and the cell pellets were resuspended in HBSS buffer. The resuspended cells were put into a 96 well microplate, 100 uL per well, and the plate was spun to settle the cells to the bottom of the wells. Imaging was done on a Zeiss 200M inverted fluorescence microscope using a 40× objective, TRITC filters, a CoolSnap HQ (Photometrics) ccd camera, and Metamorph (Universal Imaging Corp.) acquisition software. […] This would give an overestimation of phagocytic activity in a plate reader experiment, unless other steps were taken such as including a quencher dye.

HeLa cells = test: Staining of endocytic recycling compartment using transferrin conjugated with pH sensing dye; format: cell-based; conditions: transferrin conjugate 20 ug/mL, 45 minutes, 37 C, FIG. 3
Description: Staining of endocytic recycling compartment using transferrin conjugated with pH sensing dye (compound 129). HeLa (ATCC) cells were plated in a 96 well microplate at 10,000 cells per well in McCoy 5A media with 5% FBS and 4 uM deferoxamine (Sigma). Cells were grown overnight and then rinsed 2 times in DMEM with-out phenol red plus 0.5% FBS. Transferrin conjugates were applied in same media at 20 ug/mL for 45 minutes at 37 C. Cells were then rinsed 1 time with DMEM and imaged on a Zeiss 200M inverted fluorescence microscope using a 40× objective, TRITC filters, a CoolSnap HQ (Photometrics) ccd camera, and Metamorph (Universal Imaging Corp.) acquisition software.

neurons = test: Detection of neuronal cells in mixed neuron/astroglial culture; format: cell-based, rat
Description: Astroglial feeder layers were established for one week in culture on glass bottomed culture dishes, 35 mm diameter, coated with Poly-L-Lysine. Neurons from embryonic day 18 rat hippocampi were dissociated in culture medium, and seeded onto the feeder layers at a density of 25-35,000 cells per milliliter, two milliliters per dish, and allowed to grow in neuronal culture medium plus mitotic inhibitors to prevent glial proliferation.
Cells were pre-stained for 15 minutes with 200 ng/mL Hoercsht to visualize DNA in the nuclei, and 50 ng/mL calcien AM ester to visualize cytoplasm by adding 1000×DMSO stocks of these compounds to the cells in complete medium, then returning them to the cell culture incubator for fifteen minutes at 37 degrees Celsius. Cells were removed, and the medium gently poured off. The cells were immediately placed in 5 uM Compound 129, diluted from a 1 mM DMSO stock into normal saline plus 20 mM HEPES and 20 mM glucose, final pH set to 7.4 with NaOH. The cells were incubated in labeling solution for ten minutes at room temperature, and then gently washed twice with saline (above) minus dye for imaging.

[4] = Fluorescent pH response of transferrin conjugates labeled with pH sensing dyes; format: physicochemical; conditions: transferrin conjugate of the labeling sensor
Description: Labeling of transferrin with pH sensing dyes. All materials are from Invitrogen unless otherwise stated. Dissolve transferrin from human serum (Sigma, T4132) in 0.1 M NaHCO3, pH 8.3, to a concentration of 10 mg/mL. Make a 10 mg/mL solution of the succinimidyl ester of the dye in dry DMSO and sonicate briefly to aid in dissolution of the dye. Add a 10 to 30-fold molar excess of the reactive dye solution to the transferrin solution dropwise while stirring. Note that the volume of dye added depends on the specific dye and the amount of transferrin to be labeled. Protect the reaction vessel from light and stir for ˜1 hour at RT. Purify the conjugate on a P-30M gel filtration column (BioRad, 150-4150) in PBS, pH 7.2. Centrifuge the conjugate at 19,000 rpm for 20 minutes to remove aggregates, if present. Determine the degree of labeling by measuring A560 nm/A280 nm.

[5] = pH titration of labeled E. coli bioparticles; format: physicochemical; conditions: dye labeled E. coli bioparticles 0.2 mg/mL, 50 mM potassium phosphate buffer, pH 1 to 10, FIG. 4
Description: Example 303: Labeling E. Coli bioparticles for use in assays of phagocytosis. Escherichia coli Strain K12, lyophilized cells (Sigma, EC1-5G) were resuspended in PBS at 20 mg/mL and vortexed vigorously and sonicated for several minutes. The suspensions were divided into 100 uL aliquots spun down at 10,000×g for 2 minutes, supernatants removed and resuspended in 100 uL of PBS. This was done twice to clean up the E. coli. The amine reactive SE versions of the novel pH dyes were made up in DMSO at concentration of 10 mM. For labeling, 100 uL of the E. coli suspension was combined with 100 uL of the dye stock solution, so 2 mg of E. coli was labeled with 1 umole of dye. The labeling was carried out at 37 C for 45 minutes followed by the same spin down and resuspension procedure as described above 5 times to remove free dye. The final resuspension was 10 mg/mL. pH Titration of labeled E. Coli. The fluorescence of the labeled E. coli was measured at a range of pH values in 50 mM potassium phosphate buffer, from pH 1 to 10, using a Flexstation II (Molecular Devices) plate reader. The conjugates were diluted 1:50 into the potassium phosphate buffers, so the final concentration of the labeled bioparticles was 0.2 mg/mL.

[6] = Quantum yield determination relative to pH-insensitive standard 180; format: physicochemical
Description: Example 202. Quantum yield determination. Quantum yields at pH=2.0 and pH=10.0 were determined for the compounds 178 and 179 relative to the pH-insensitive standard 180 by comparing integrated absorption and emission spectral curves.
Compounds 178 and 179 were prepared by treatment of the corresponding succinimidyl esters 111 and 129 with methoxyethylamine. The reference standard 180 was obtained in the reaction of commercial succinimidyl 5-carboxy-tetramethylpdodamine (TAMRA-5-SE) with the same amine.

Compound | λem [1] | λex [1] | S = F/F0 [1] | pK [1] | further results
CCN(CCCC(=O)OC)c1cc(OC)c(-c2c3ccc(N(C)C)cc3[o+]c3cc(N(C)C)ccc23)cc1N(C)C [Compound 127, Methyl 4-((2-dimethylamino)-5-methoxyphenyl-4-tetramethylrhodaminyl)(ethyl)amino) butanoate] | 587 nm | 561 nm | 130 | 7.3 | fluorescence upon protonation (titration curve) ([1]; FIG. 1): significant increase in fluorescence upon protonation
CCN(CCCC(=O)ON1C(=O)CCC1=O)c1cc(OC)c(-c2c3ccc(N(C)C)cc3[o+]c3cc(N(C)C)ccc23)cc1N(C)C [Compound 129, Succinimidyl 4-((2-Dimethylamino)-5-methoxyphenyl-4-tetramethylrhodaminyl)(ethyl)amino) butanoate] | – | – | – | – | fluorescence in the red channel versus pH ([2]; 10,000 MW dextran conjugate with rhodamine green, 0.1 mg/mL, ex 540, em 600, FIG. 10A): fluorescence does change with pH; fluorescence in the red channel versus pH ([2]; dextran conjugate with rhodamine green at a higher degree of label than Compound 129, 0.1 mg/mL, ex 540, em 600, FIG. 9A): fluorescence does change with pH; fluorescence of cells by flow cytometry ([3]; E. coli labeled with the dye, relative to unlabeled E. coli and iced negative control, FIG. 5): increase in fluorescence; staining seen by fluorescence microscopy ([3]; labeled E. coli, whole blood, 37° C., 15 minutes, FIG. 6): bright vesicular staining of the phagosomes filled with the engulfed E. coli within the cells; staining pattern (HeLa cells): characteristic perinuclear staining pattern of the endocytic recycling compartment; uptake by glial cells shown by acidification of the preparation (neurons): had in fact taken up; labeling of neurons relative to astrocytes (neurons; 5 uM, ten minutes, room temperature, pH 7.4, TRITC channel): appear bright over the dimly labeled astrocytes; pKa [4]: 4.2; fluorescence intensity versus pH [5]: large increase in fluorescence at acidic pHs
CCN(CCCC(=O)NCCCCCC(=O)ON1C(=O)CCC1=O)c1cc(OC)c(-c2c3ccc(=[N+](C)C)cc-3oc3cc(N(C)C)ccc23)cc1N(C)C [Compound 139] | 588 nm | 556 nm | 80 | 5.6 | S = F/F0 [4]: 15
CCN(CCCC(=O)NCCCCCN)c1cc(OC)c(-c2c3ccc(=[N+](C)C)cc-3oc3cc(N(C)C)ccc23)cc1N(C)C [Compound 141] | 588 nm | 560 nm | 65 | 7.4 | –
CCN(CC)c1cc2occ(-c3ncc(C(=O)O)o3)c2cc1OC [Compound 152] | 393 nm | 325 nm | – | – | –
CCOC(=O)CCCN(CC)c1cc(OC)c(C2=c3cc4c5c(c3Oc3c2cc2c6c3CCCN6CCC2)CCC[N+]=5CCC4)cc1OC [Compound 155] | 611 nm | 586 nm | 53 | 5.0 | –
CCOC(=O)CCCN(CC)c1cc(OC)c(-c2cc3ccc(C(=O)OC)cc3[nH]2)cc1OC [Compound 157] | 424 nm | 349 nm | 270 | 5.4 | –
CCOC(=O)CCCN(CC)c1cc(OC)c(C2=c3cc4c5c(c3Oc3c2cc2c6c3CCCN6CCC2)CCC[N+]=5CCC4)cc1N(C)C [Compound 162] | 611 nm | 587 nm | 88 | 7.2 | –
CN(C)C=Nc1ccc(-c2c3ccc(=O)cc-3oc3cc(O)ccc23)c(C(=O)O)c1 [Compound 173] | 517 nm | 490 nm | 200 | 7.2 | pH of the maximum of the titration curve ([1]; FIG. 2): 7.2; pKa ([1]; FIG. 2, read-out: pKa, drop in fluorescence (amidine titration curve)): ~8; pKa ([1]; pKa, increase in fluorescence (fluorescein titration curve), FIG. 2): ~5.5
CN(C)C=Nc1ccc(-c2c3ccc(=[N+](C)C)cc-3oc3cc(N(C)C)ccc23)c(C(=O)O)c1 [Compound 175] | 576 nm | 550 nm | 10 | 7.7 | –
CCN(CCCC(=O)NCCOC)c1cc(OC)c(-c2c3ccc(=[N+](C)C)cc-3oc3cc(N(C)C)ccc23)cc1OC [Compound 178] | – | – | – | – | pKa ([6]; aqueous buffers, Table 4): 4.6; QE (pH = 2.0) ([6]; relative quantum yield, pH = 2.0, relative to standard 180): 0.78; QE (pH = 10.0) ([6]; relative quantum yield, pH = 10.0, relative to standard 180): 0.008
CCN(CCCC(=O)ON1C(=O)CCC1=O)c1cc(O)c(-c2c3ccc(=[N+](C)C)cc-3oc3cc(N(C)C)ccc23)cc1OC.[Cl-] [Compound 189, N-(6-(dimethylamino)-9-(4-((4-(2,5-dioxopyrrolidin-1-yloxy)-4-oxobutyl)(ethyl)amino)-2-hydroxy-5-methoxyphenyl)-3H-xanthen-3-ylidene)-N-methylmethanaminium chloride] | – | – | – | – | fluorescence intensity versus pH [5]: large increase in fluorescence at acidic pHs
Ethyl 4-((2-dimethylamino)-5-methoxyphenyl-4-tetramethylrhodaminyl)(ethyl)amino) butanoate [Compound 133] | 587 nm | 561 nm | 180 | 7.3 | –
